The values that follow come from US5643923A, “Quinuclidinyloxy-isoxazole compounds and their therapeutic uses” (Sankyo Company, Limited, priority 1990, dated 1997).

For data set [1], the target named is T1, M1 receptors (Rattus norvegicus, UniProt P08482).
T1 sequence (P08482 1-460): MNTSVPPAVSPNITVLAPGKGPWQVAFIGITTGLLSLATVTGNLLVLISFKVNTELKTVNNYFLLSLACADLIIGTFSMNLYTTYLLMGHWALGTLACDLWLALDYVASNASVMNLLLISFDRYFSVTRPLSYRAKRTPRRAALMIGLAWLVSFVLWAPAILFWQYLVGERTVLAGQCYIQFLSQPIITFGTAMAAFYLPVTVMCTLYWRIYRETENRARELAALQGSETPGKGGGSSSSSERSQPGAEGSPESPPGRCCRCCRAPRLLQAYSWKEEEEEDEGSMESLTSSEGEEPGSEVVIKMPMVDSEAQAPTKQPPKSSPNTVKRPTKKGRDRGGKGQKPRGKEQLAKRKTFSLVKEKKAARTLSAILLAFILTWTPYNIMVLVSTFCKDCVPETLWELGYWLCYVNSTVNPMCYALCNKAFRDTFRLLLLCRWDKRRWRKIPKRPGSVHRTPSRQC
The data set is described as follows: biochemical. Format: binding.

Data set [2] deals with T2, M2 receptors (Rattus norvegicus, UniProt P10980).
T2 sequence (P10980 1-466): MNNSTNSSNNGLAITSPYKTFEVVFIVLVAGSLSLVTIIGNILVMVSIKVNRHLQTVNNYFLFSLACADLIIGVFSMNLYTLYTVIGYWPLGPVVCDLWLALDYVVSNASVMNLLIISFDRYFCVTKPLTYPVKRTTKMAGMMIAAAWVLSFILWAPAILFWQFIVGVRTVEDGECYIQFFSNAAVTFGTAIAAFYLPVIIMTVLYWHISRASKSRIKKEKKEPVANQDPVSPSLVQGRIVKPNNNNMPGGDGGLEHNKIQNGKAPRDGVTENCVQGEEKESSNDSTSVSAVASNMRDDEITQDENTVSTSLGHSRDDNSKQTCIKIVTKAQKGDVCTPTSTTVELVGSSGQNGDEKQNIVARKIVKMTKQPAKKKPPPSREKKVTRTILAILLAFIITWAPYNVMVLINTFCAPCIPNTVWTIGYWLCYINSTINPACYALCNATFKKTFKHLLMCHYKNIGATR
The data set is described as follows: biochemical. Format: binding.

Data set [3] has as its system mice. Description: Acute toxicity. Format: in vivo, mouse. Particulars: 75 mg/kg, 5 days observation. On the procedure:
Each of the compounds of Examples 3 and 4 was suspended in a 0.5% CMC solution, and the suspension was administered to mice in an amount sufficient to provide a dose of active compound of 75 mg/kg.

In data set [4] the test system is reserpine-induced ptosis in mice. The data set is described as follows: Anti-reserpine effect: antagonistic effect against reserpine-induced ptosis. Format: in vivo, mouse (ddY strain). The following applies: for Maximum inhibition rate (%): reserpine 2 mg/kg s.c., 90 minutes. The text has this:
It is considered that the sedation caused by the administration of reserpine or tetrabenazine to mice or rats produces an effect similar to the symptoms of clinical depression. Of the various pharmacological effects caused by these compounds, ptosis (drooping of the upper eyelid) and a reduction in body temperature have been widely used as indices of their activity, and it has been shown that any compound which inhibits either ptosis or lowering of the body temperature will also be active against the symptoms of clinical depression. Therefore, anti-reserpine or anti-tetrabenazine effects have been widely used for a long time as a method of screening for antidepressants. The test index used for the evaluation of the compounds of the present invention is the antagonistic effect of a test compound against reserpine-induced ptosis in mice.
The test animals employed were mature male mice of the ddY strain, 4 weeks old and each weighing 22 to 27 g. The animals were divided into groups, each including 3 mice. The compound under test was dissolved or suspended in an appropriate solvent [either physiological saline or a 0.5% CMC (carboxymethyl cellulose) solution] and administered orally to the mice of the test groups in the dose specified in the following Table 6. The mice in a control group were given only the solvent without any active compound, administered in a similar way. Immediately after administration,2 mg/kg of reserpine were administered subcutaneously to every mouse. After 90 minutes, it was determined how much the eyelids had closed (degree of ptosis) by bringing the mouse out of its cage and observing the shape of the eye.
From the scores obtained, the inhibition rate at each dose level was calculated from the following equation: [formula]

Data set [5] concerns blood viscosity increase resulting from cerebral ischemia. Description: Inhibition of blood viscosity increase resulting from cerebral ischemia. Format: in vivo, rat (Wistar strain). The following applies: oral; one hour after carotid ligation; shear 37.5, 75, 150 and 375/sec. On the procedure:
The test animals used were adult male rats of the Wistar strain. Each rat was administered orally either a solution of 3-(3-quinuclidinyloxy)isoxazole hydrochloride (the compound prepared as described in Example 4) in suspension in a 0.5% CMC vehicle or the vehicle itself. Immediately after administration, 40 mg/kg of pentobarbital was administered intraperitoneally for anesthesia. The rat was fixed at the dorsal position, and 0.6 ml of a blood sample was taken from the common jugular vein on one side. The viscosity of each sample was measured using a viscometer (Biorheolyzer, a trade name for product of Tokyo Keiki) at shear values of 37.5/sec, 75/sec, 150/sec and 375/sec. 0.5 ml of blood was then taken from the other side and its viscosity was measured in the same way.
After the first two samples had been taken, the carotid arteries on both sides of each animal were ligated. One hour after ligation, in the case of the control animals (administered only the vehicle), the blood viscosity values had increased by between 5 and 20% at every shear rate (the slower the shear rate, the higher the viscosity).

The target in data set [6] is T3, 5-HT3 receptors (Rattus norvegicus, UniProt P35563).
T3 sequence (P35563 24-483): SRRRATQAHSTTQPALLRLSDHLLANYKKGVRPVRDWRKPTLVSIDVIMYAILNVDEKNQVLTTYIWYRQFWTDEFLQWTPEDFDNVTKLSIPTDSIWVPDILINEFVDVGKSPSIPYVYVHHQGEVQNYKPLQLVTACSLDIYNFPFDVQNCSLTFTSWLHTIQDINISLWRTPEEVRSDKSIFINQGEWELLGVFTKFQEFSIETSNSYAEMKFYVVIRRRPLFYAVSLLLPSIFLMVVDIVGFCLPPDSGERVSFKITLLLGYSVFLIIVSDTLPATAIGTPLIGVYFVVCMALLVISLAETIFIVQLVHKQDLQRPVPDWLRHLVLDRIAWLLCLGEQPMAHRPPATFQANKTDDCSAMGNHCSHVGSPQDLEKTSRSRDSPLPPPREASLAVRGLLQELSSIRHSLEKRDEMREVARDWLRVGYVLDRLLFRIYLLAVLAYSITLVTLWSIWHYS
Description: biochemical. Format: binding. On the procedure:
A membranous fraction prepared from the cerebral cortex of rats was incubated with the test compound and with ^3 H-GR65630 (to a final concentration of 1 nM, as a ligand to the 5-HT3 receptors) at 37° C. for 45 minutes. At the end of this time, the samples were filtered. The ^3 H radioactivity bound to the filter paper was determined by a scintillation counter as in Experiment 1.

Data set [7] relates to isolated guinea pig ileum (selective 5-HT3 agonist 2-methyl-5-HT). Description: Effects upon the isolated guinea pig ileum: inhibition of contraction by 2-methyl-5-HT. The following applies: for Inhibition (%): 10^-6 M, contractile force by 2-methyl-5-HT, 30 minutes after addition. On the procedure:
The ileum isolated from a guinea pig was hung in a Magnus cup filled with Tyrode's solution. The contractile force exerted by the ileum on the application of a selective 5-HT3 agonist, 2-methyl-5-HT, was determined using an isometric transducer. A test compound was then added to the bath and the contractile force was again measured 30 minutes after the addition. The inhibition rate on the contractile force was calculated.

[8] abbreviates: 3H-pirenzepine 1 nM, rat cerebral cortex membrane, 30° C., 60 minutes, read-out: IC50 Pirenzp (a) (cerebral cortex).
Setting [9] is: ratio IC50 QNB (heart) / IC50 Pirenzp (cerebral cortex).
Setting [10] is: 3H-GR65630 1 nM, rat cerebral cortex membrane, 37° C., 45 minutes.

Structures are written as SMILES. Structures can show the parent of a compound that is named as a salt. Where two headings read alike, the source gives them in different places.

Turning to `CN1CCC(Oc2noc3ccc(Cl)cc23)CC1.Cl` [Example A1, 5-Chloro-3-(1-methyl-4-piperidyloxy)-1,2-benzisoxazole hydrochloride], the IC50 – broadly, the concentration at which inhibition is half-maximal – was determined as 1900 nM in data set [1] (setting [8]) and 41000 nM in data set [2] (read-out: IC50 QNB (b) (heart)). For the same molecule, in data set [1] (setting [9]), the “M1 selectivity (b)/(a)” value came to 22.

`Cc1onc(OC2CN3CCC2CC3)c1Cl.Cl` (stereo not shown) [Example A2, 4-Chloro-5-methyl-3-(3-quinuclidinyloxy)isoxazole hydrochloride]: in data set [3], the adverse symptoms result is reported as “nor did the mice exhibit any adverse symptoms” and the deaths entry was “no deaths were observed”. In data set [4] (3 mg/kg po), the Assessment entry is recorded as “- (not more than 40%)” and the “Maximum inhibition rate (%)” value was 60%. Besides, in data set [4] (30 mg/kg po), the Assessment result is on record as “+ (inhibition rates not less than 71%)” and the “Maximum inhibition rate (%)” value was determined as 100%.

With `Cl.c1cc(OC2CN3CCC2CC3)no1` (stereo not shown) [Example A3, 3-(3-Quinuclidinyloxy)isoxazole hydrochloride], the adverse symptoms result in data set [3] is recorded as “nor did the mice exhibit any adverse symptoms”. Besides, in data set [3], the deaths result is “no deaths were observed”. For the same molecule, the “inhibition of blood viscosity increase” value in data set [5] is given as “the increase was significantly inhibited at every shear rate”. The Assessment entry in data set [4] (1 mg/kg po) is “- (not more than 40%)”; in data set [4] (3 mg/kg po), “± (from 41% to 70%)”; in data set [4] (10 mg/kg po) it was “+ (inhibition rates not less than 71%)”; in data set [4] (30 mg/kg po), “+ (inhibition rates not less than 71%)”. Also, the “Maximum inhibition rate (%)” value in data set [4] (1 mg/kg po) is reported as 21%; in data set [4] (3 mg/kg po), 57%; in data set [4] (10 mg/kg po) it was 86%; in data set [4] (30 mg/kg po), 100%.

On to `Cc1cc(OC2CN3CCC2CC3)no1.Cl` (stereo not shown) [Example A4, 5-Methyl-3-(3-quinuclidinyloxy)isoxazole hydrochloride], for which, in data set [4] (30 mg/kg po), the Assessment result is reported as “± (from 41% to 70%)” and the “Maximum inhibition rate (%)” value is 45%. Besides, in data set [4] (100 mg/kg po), the Assessment result is “+ (inhibition rates not less than 71%)” and the “Maximum inhibition rate (%)” value is given as 80%.

Consider `Cl.Clc1c(OC2CN3CCC2CC3)noc1-c1ccccc1` (stereo not shown) [Example A5, 4-Chloro-3-(3-quinuclidinyloxy)-5-phenylisoxazole hydrochloride], for which, in data set [6], half-maximal inhibition (IC50) required 220 nM. For the same molecule, in data set [7], the “5-HT3 antagonist activity (in words)” value was “as potent an antagonist as ondansetron” and the “Inhibition (%)” value was 82%.

In turn, `Clc1ccc2onc(OC3CN4CCC3CC4)c2c1` (stereo not shown) [Example A6, 5-Chloro-3-(3-quinuclidinyloxy)-1,2-benzisoxazole] had an IC50 in data set [6] (setting [10]) of 180 nM.

Turning to `Clc1ccc(-c2cc(OC3CN4CCC3CC4)no2)cc1` (stereo not shown) [Example A7, 5-(p-Chlorophenyl)-3-(3-quinuclidinyloxy)isoxazole hydrochloride], inhibition in data set [6] was half-maximal at 320 nM (IC50).

Molecule `Clc1c(OC2CCCNC2)noc1-c1ccccc1` (stereo not shown) [Example A8, 4-Chloro-5-phenyl-3-(3-piperidyloxy)isoxazole hydrochloride] returned a 50% inhibitory concentration (IC50) in data set [6] (setting [10]) of 260 nM.

The molecule `c1csc(-c2cc(OC3CN4CCC3CC4)no2)c1` (stereo not shown) [Example A9, 3-(3-Quinuclidinyloxy)-5-(2-thienyl)isoxazole hydrochloride] had an IC50 in data set [6] of 150 nM.

Turning to `O=C1CCCN1CC#CCN1CCCC1` [Example B1, Oxotremorine], in data set [1], inhibition was half-maximal at 1300 nM (IC50) and the “M1 selectivity (b)/(a)” value is 0.9. Also, the IC50 in data set [2] came to 1200 nM.

Turning to `CCN1C(=O)CC2(CCN(C)CC2)C1=O` [Example B2], the IC50 in data set [1] (setting [8]) came out at 3100 nM; in data set [2] (read-out: IC50 QNB (b) (heart)), 21000 nM. The “M1 selectivity (b)/(a)” value in data set [1] (setting [9]) was found to be 6.8.

Regarding `CC1OC2(CS1)CN1CCC2CC1` (stereo not shown) [Example B3], the IC50 came out at 3600 nM in data set [1] (setting [8]) and 14000 nM in data set [2] (3H-quinuclidinyl benzylate 0.12 nM, rat heart membrane, 30° C., 120 minutes, read-out: IC50 QNB (b) (heart)).

As to `Cc1nccn1CC1CCc2c(c3ccccc3n2C)C1=O` (stereo not shown) [Example B5, Ondansetron, reference compound], in data set [7], the “Inhibition (%)” value was found to be 79%.
